Values quoted from earlier work in patent US12220416B2, “Methylene-tetrahydrofolate reductase isoform-based biomarker and method of use thereof” (RUSH UNIVERSITY MEDICAL CENTER, priority 2017, dated 2025).

Conditions: RA patients on MTX therapy; ADEs provoke discontinuation of MTX therapy; ref [38]

CN(Cc1cnc2nc(N)nc(N)c2n1)c1ccc(C(=O)N[C@@H](CCC(=O)O)C(=O)O)cc1 [MTX, Methotrexate]
RA patients developing MTX-related adverse drug events (ADEs): approximately 30%
